Experimental data from patent US20250332300A1 (priority 2024, published 2025).
Where a name gives a salt, the structure may show the parent alone. Read-outs that look alike come from different tables or passages of the source. Starred links: 1 amine or outer side, 2 acyl side, 3 side chain; linkers in the order of their positions; H or OH if unused. Positions of bridges follow the written chain, without caps; N, C: chain ends. Non-standard residues stand in square brackets, D forms with d. Residues, ends and D or L forms follow the SMILES beside them. Trp(5-OH) = N[C@@H](Cc1c[nH]c2ccc(O)cc12)C(=O)O; NMePhe(4-F) = CN[C@@H](Cc1ccc(F)cc1)C(=O)O; NMehPhe = CN[C@@H](CCc1ccccc1)C(=O)O; NMeAoc(2) = CCCCCC[C@H](NC)C(=O)O; Aad = N[C@@H](CCCC(=O)O)C(=O)O; Gly(cPr) = N[C@H](C(=O)O)C1CC1; NMeK = CN[C@@H](CCCCN)C(=O)O; NMeDap = CN[C@@H](CN)C(=O)O; NMeC = CN[C@@H](CS)C(=O)O; NMeS = CN[C@@H](CO)C(=O)O; Dap = NC[C@H](N)C(=O)O; X5 = O=C(C[*:2])[*:1]

Legend:
Type in all cases: binding
mouse HER2 (23-653) [1] = target: T1, mouse HER2 (23-653) (Mus musculus, UniProt P70424); assay: Surface plasmon resonance (SPR) for assessment of peptide affinity, mouse HER2; design: mouse HER2 (23-653) using a Cy5 labeled peptide as a probe; made in house
Excerpt: Each protein was immobilized either onto a SA sensorchip (Cytiva, BR-1005-31) or CM5 sensorchip (Cytiva, BR-1005-30) to a density of 800-2000 RU.

mouse HER2 (23-653) [2] = target: T1, mouse HER2 (23-653); assay: TR-FRET competition assay for peptide potency, mouse HER2; design: mouse HER2 (23-653) using a Cy5 labeled peptide as a probe; made in house; host or cells: mammalian cells; settings: 0.1 nM mouse HER2, 24 h incubation
human HER2 (23-652) [3] = target: T2, human HER2 (23-652) (Homo sapiens, UniProt P04626); assay: Surface plasmon resonance (SPR) for assessment of peptide affinity, human HER2; design: towards human HER2 (23-652) and mouse HER2 (23-653); made in house; settings: SPR, human HER2 extracellular domain, 25° C., 1:1 binding model; read-out: huHER2-SPR-ONC KD
Method in brief: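 Binding kinetics fitted from sensorgrams with 280 s peptide association then 3000 s dissociation (30 uL/min), using HER2 (23-652) either directly immobilized (SA/CM5) or anti-Fc-captured; 3 M magnesium chloride used for regeneration.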

human HER2 (23-652) [4] = target: T2, human HER2 (23-652); assay: TR-FRET competition assay for peptide potency, human HER2; design: towards human HER2 (23-652) and mouse HER2 (23-653); made in house; host or cells: mammalian cells; settings: TR-FRET competition with Cy5 labeled peptide probe, 0.1 nM human HER2, 24 h incubation; read-out: huHER2 TR-FRET IC50
Protocol: Both proteins containing a His-, Avi-tag and biotin in Nterminus, were expressed in mammalian cells and produced in house. […] Standard assay conditions consist of 20 uL total volume in white 384-well plates (Greiner), in 10 mM HEPES buffer containing 150 mM NaCl, 3 mM EDTA, 0.05% Tween20 and 1% final DMSO. […] The ratiometric FRET assay readout is calculated from the ratio of the raw data of the two distinct fluorescence signals measured in time resolved mode (fluorescence 665 nm/fluorescence 620 nm). IC50 values were calculated with the standard Novartis in-house assay data analysis software (Helios software application, Novartis Institutes for BioMedical Research, unpublished) using the methods described in Comput. Methods. Programs. Biomed. 2006, 82, 31-37 (regression algorithms for nonlinear dose-response curve fitting).

[5] = SPR, mouse HER2 extracellular domain, 25° C., 1:1 binding model, read-out: moHER2-SPR-ONC KD
[6] = TR-FRET competition with Cy5 labeled peptide probe, read-out: moHER2 TR-FRET IC50

| Kd (mouse HER2 (23-653) [1]; [5]) [nM] | IC50 (mouse HER2 (23-653) [2]; [6]) [nM] | Kd (human HER2 (23-652) [3]) [nM] | IC50 (human HER2 (23-652) [4]) [nM] | Structure (SMILES) | Kd (mouse HER2 (23-653) [1]) [nM] | IC50 (mouse HER2 (23-653) [2]; moHER2 TR-FRET IC50, TR-FRET competition with Cy5 labeled peptide probe) [nM] |
| --- | --- | --- | --- | --- | --- | --- |
| 2.5 | 4.7 | – | – | CCCCCC[C@H]1C(=O)N(C)[C@@H](CCCCNC(C)=O)C(=O)N[C@@H](Cc2c[nH]c3ccc(O)cc23)C(=O)N[C@@H](Cc2c[nH]c3ccccc23)C(=O)N[C@@H](C2CC2)C(=O)N(C)[C@H](C(=O)N(C)[C@@H](Cc2ccc(F)cc2)C(N)=O)CNC(=O)CCC[C@H](NC(C)=O)C(=O)N[C@@H](Cc2ccc(O)cc2)C(=O)N[C@@H](CO)C(=O)N1C [Example A20, (3S,6S,9S,12S,15S,18S,21S,24S,27S)-9-((1H-indol-3-yl)methyl)-27-acetamido-15-(4-acetamidobutyl)-N-((S)-1-amino-3-(4-fluorophenyl)-1-oxopropan-2-yl)-6-cyclopropyl-18-hexyl-12-((5-hydroxy-1H-indol-3-yl)methyl)-24-(4-hydroxybenzyl)-21-(hydroxymethyl)-N,4,16,19-tetramethyl-5,8,11,14,17,20,23,26,31-nonaoxo-1,4,7,10,13,16,19,22,25-nonaazacyclohentriacontane-3-carboxamide] (Ac-[Aad]YS[NMeAoc(2)][NMeK](Ac)[Trp(5-OH)]W[Gly(cPr)][NMeDap][NMePhe(4-F)]-NH2; lactam 1-9) | – | – |
| 10 | 7.6 | 5.5 | – | CC(=O)N[C@H]1CCCC(=O)NC[C@@H](C(=O)N(C)[C@@H](Cc2ccc(F)cc2)C(=O)N[C@@H](CCCCNC(=O)CN2CCN(CC(=O)O)CCN(CC(=O)O)CCN(CC(=O)O)CC2)C(N)=O)N(C)C(=O)[C@H](C2CC2)NC(=O)[C@H](Cc2c[nH]c3ccccc23)NC(=O)[C@H](Cc2c[nH]c3ccc(O)cc23)NC(=O)[C@H](CCCCNC(=O)CC(=O)O)N(C)C(=O)[C@H](CCc2ccccc2)N(C)C(=O)[C@H](CO)NC(=O)[C@H](Cc2ccc(O)cc2)NC1=O [Example C19] | – | – |
| 27 | 53 | 30 | – | CC(=O)N[C@H]1CCCC(=O)NC[C@@H](C(=O)N(C)[C@@H](Cc2ccc(F)cc2)C(N)=O)N(C)C(=O)[C@H](C2CC2)NC(=O)[C@H](Cc2c[nH]c3ccccc23)NC(=O)[C@H](Cc2c[nH]c3ccc(O)cc23)NC(=O)[C@H](CO)N(C)C(=O)[C@H](CCc2ccccc2)N(C)C(=O)[C@H](CO)NC(=O)[C@H](Cc2ccc(O)cc2)NC1=O [Example A29, (3S,6S,9S,12S,15S,18S,21S,24S,27S)-9-((1H-indol-3-yl)methyl)-27-acetamido-N-((S)-1-amino-3-(4-fluorophenyl)-1-oxopropan-2-yl)-6-cyclopropyl-12-((5-hydroxy-1H-indol-3-yl)methyl)-24-(4-hydroxybenzyl)-15,21-bis(hydroxymethyl)-N,4,16,19-tetramethyl-5,8,11,14,17,20,23,26,31-nonaoxo-18-phenethyl-1,4,7,10,13,16,19,22,25-nonaazacyclohentriacontane-3-carboxamide] (Ac-[Aad]YS[NMehPhe][NMeS][Trp(5-OH)]W[Gly(cPr)][NMeDap][NMePhe(4-F)]-NH2; lactam 1-9) | – | – |
| 122 | 430 | 117 | – | CC(=O)N[C@H]1CNC(=O)CSC[C@@H](C(=O)N(C)[C@@H](Cc2ccc(F)cc2)C(N)=O)N(C)C(=O)[C@H](C2CC2)NC(=O)[C@H](Cc2c[nH]c3ccccc23)NC(=O)[C@H](Cc2c[nH]c3ccc(O)cc23)NC(=O)[C@H](CO)N(C)C(=O)[C@H](CCc2ccccc2)N(C)C(=O)[C@H](CO)NC(=O)[C@H](Cc2ccc(O)cc2)NC1=O [Example A50, (3R,6S,9S,12S,15S,18S,21S,24S,27S)-9-((1H-indol-3-yl)methyl)-27-acetamido-N—((S)-1-amino-3-(4-fluorophenyl)-1-oxopropan-2-yl)-6-cyclopropyl-12-((5-hydroxy-1H-indol-3-yl)methyl)-24-(4-hydroxybenzyl)-15,21-bis(hydroxymethyl)-N,4,16,19-tetramethyl-5,8,11,14,17,20,23,26,30-nonaoxo-18-phenethyl-1-thia-4,7,10,13,16,19,22,25,29-nonaazacyclohentriacontane-3-carboxamide] (Ac-[Dap]YS[NMehPhe][NMeS][Trp(5-OH)]W[Gly(cPr)][NMeC][NMePhe(4-F)]-NH2; linker 1-9 via X5) | – | – |
| 54 | 57 | – | – | CC(=O)NCCCC[C@H]1C(=O)N[C@@H](Cc2c[nH]c3ccc(O)cc23)C(=O)N[C@@H](Cc2c[nH]c3ccccc23)C(=O)N[C@@H]([C@H](C)O)C(=O)N(C)[C@H](C(=O)N(C)[C@@H](Cc2ccc(F)cc2)C(=O)N[C@@H](CCCCNC(=O)N2CCN(CC(=O)O)CC2)C(N)=O)CNC(=O)CC[C@H](NC(=O)CN2CCN(CC(=O)O)CCN(CC(=O)O)CCN(CC(=O)O)CC2)C(=O)N[C@@H](Cc2ccc(O)cc2)C(=O)N[C@@H](CO)C(=O)N(C)[C@@H](CCc2ccccc2)C(=O)N1C [Example C27] | – | – |
| – | < 0.1 | < 0.1 | < 0.1 | CC(=O)NCCCC[C@H]1C(=O)N[C@@H](Cc2c[nH]c3ccc(O)cc23)C(=O)N[C@@H](Cc2c[nH]c3ccccc23)C(=O)N[C@@H](C2CC2)C(=O)N(C)[C@H](C(=O)N(C)[C@@H](Cc2ccc(F)cc2)C(=O)N[C@@H](CCCCNC(=O)CCC(C(=O)O)N2CCN(CC(=O)O)CCN(CC(=O)O)CC2)C(N)=O)CNC(=O)CCC[C@H](NC(C)=O)C(=O)N[C@@H](Cc2ccc(O)cc2)C(=O)N[C@@H](CO)C(=O)N(C)[C@@H](CCc2ccccc2)C(=O)N1C (single isomer, unassigned) [Example C34] | – | – |
| – | – | – | – | CC(=O)NCCCC[C@H]1C(=O)N[C@@H](Cc2c[nH]c3ccc(O)cc23)C(=O)N[C@@H](Cc2c[nH]c3ccccc23)C(=O)N[C@@H](C2CC2)C(=O)N(C)[C@H](C(=O)N(C)[C@@H](Cc2ccc(F)cc2)C(N)=O)CNC(=O)CC[C@H](N)C(=O)N[C@@H](Cc2ccc(O)cc2)C(=O)N[C@@H](CO)C(=O)N(C)[C@@H](CCc2ccccc2)C(=O)N1C [Example A32, (3S,6S,9S,12S,15S,18S,21S,24S,27S)-9-((1H-indol-3-yl)methyl)-15-(4-acetamidobutyl)-27-amino-N-((S)-1-amino-3-(4-fluorophenyl)-1-oxopropan-2-yl)-6-cyclopropyl-12-((5-hydroxy-1H-indol-3-yl)methyl)-24-(4-hydroxybenzyl)-21-(hydroxymethyl)-N,4,16,19-tetramethyl-5,8,11,14,17,20,23,26,30-nonaoxo-18-phenethyl-1,4,7,10,13,16,19,22,25-nonaazacyclotriacontane-3-carboxamide TFA salt] | 2.2 | 2.6 |

| Structure (SMILES) | Kd (mouse HER2 (23-653) [1]; [5]) [nM] | IC50 (mouse HER2 (23-653) [2]; [6]) [nM] | Kd (human HER2 (23-652) [3]) [nM] | IC50 (human HER2 (23-652) [4]) [nM] | Kd (mouse HER2 (23-653) [1]) [nM] | IC50 (mouse HER2 (23-653) [2]; moHER2 TR-FRET IC50, TR-FRET competition with Cy5 labeled peptide probe) [nM] |
| --- | --- | --- | --- | --- | --- | --- |
| CC(=O)NCCCC[C@H]1C(=O)N[C@@H](Cc2c[nH]c3ccc(O)cc23)C(=O)N[C@@H](Cc2c[nH]c3ccccc23)C(=O)N[C@@H](C2CC2)C(=O)N(C)[C@H](C(=O)N(C)[C@@H](Cc2ccc(F)cc2)C(=O)N[C@@H](CCCCNC(=O)CC[C@H](C(=O)O)N2CCN(CC(=O)O)CCN(CC(=O)O)CCN(CC(=O)O)CC2)C(N)=O)CNC(=O)CCC[C@H](NC(C)=O)C(=O)N[C@@H](Cc2ccc(O)cc2)C(=O)N[C@@H](CO)C(=O)N(C)[C@@H](CCc2ccccc2)C(=O)N1C [Example C33] | < 0.1 | – | – | – | – | – |
| CC(=O)N[C@H]1CCCC(=O)NC[C@@H](C(=O)N(C)[C@@H](Cc2ccc(F)cc2)C(=O)N[C@@H](CCCCNC(=O)CN2CCN(CC(=O)O)CCN(CC(=O)O)CCN(CC(=O)O)CC2)C(N)=O)N(C)C(=O)[C@H]([C@H](C)O)NC(=O)[C@H](Cc2c[nH]c3ccccc23)NC(=O)[C@H](Cc2c[nH]c3ccc(O)cc23)NC(=O)[C@H](CCCCNC(=O)CO)N(C)C(=O)[C@H](CCc2ccccc2)N(C)C(=O)[C@H](CO)NC(=O)[C@H](Cc2ccc(O)cc2)NC1=O [Example C21] | 0.7 | – | 0.3 | – | – | – |
| COCCOCCOCCOCCOCCOCCOCCOCCOCCOCCOCCOCCC(=O)N[C@H]1CCCC(=O)NC[C@@H](C(=O)N(C)[C@@H](Cc2ccc(F)cc2)C(=O)N[C@@H](CCCCNC(=O)CN2CCN(CC(=O)O)CCN(CC(=O)O)CCN(CC(=O)O)CC2)C(N)=O)N(C)C(=O)[C@H](C2CC2)NC(=O)[C@H](Cc2c[nH]c3ccccc23)NC(=O)[C@H](Cc2c[nH]c3ccc(O)cc23)NC(=O)[C@H](CCCCNC(C)=O)N(C)C(=O)[C@H](CCc2ccccc2)N(C)C(=O)[C@H](CO)NC(=O)[C@H](Cc2ccc(O)cc2)NC1=O [Example C2] | 0.2 | – | – | – | – | – |
